Source: PMC6541264, “Molecular mechanisms involved in drug-induced liver injury caused by urate-lowering Chinese herbs: A network pharmacology study and biology experiments” (PLoS ONE, 2019)

Assays:
Type in all cases: cell-based, human
p38α = assay: Western blot, expression of p-p38α/p38α in L-02 cells, without and with inhibitor SB203580
From the text: After the examination of biochemical indicators for hepatotoxicity in the cell, the expression of crucial liver injury protein in L02 cell lines among different groups was compared by Western blot analysis. Briefly, the proteins from different groups were harvested and lysed using lysis buffer (Sigma-Aldrich) containing a proteinase inhibitor cocktail (Sigma-Aldrich), the equal amounts of protein were separated by electrophoresis on a pre-cast 10% SDS-polyacrylamide gel (Bio-Rad, Hercules, CA) and transferred to polyvinylidene difluoride membranes (Millipore, Bedford, MA). Next, the membrane was blocked in TBST-T containing 5% skim milk for 2 h at room temperature and probed with anti-beta-catenin, and incubated overnight with the indicated primary antibody, followed by incubation with the secondary antibodies at room temperature for another 2 h. Finally, all the immune blots were visualized by enhanced chemiluminescence (Pierce Biotechnology, Inc., Rockford, IL, USA) and western blots were performed at least three times.
According to the results of network pharmacology, we examined the expression levels of p38α. […] The Specific specific composition information is was shown in S3 Table. […] However, the mechanism of saikosaponin D causing liver injury still remained unclear.
(§1) To further and fully elucidating the mechanism of the liver injury caused by the representative compounds from urate-lowering Chinese herbs, we chose the p38α inhibitor, SB203580 to verify our findings. Seemingly, the ALT, AST, ALP, and LDH activities of each group decreased to varying degrees under the influence of inhibitor. The specific composition information was shown in S2 Table. […] The Specific specific composition information is was shown in S4 Table.

L-02 cells [1] = assay: Biochemical indicators of hepatotoxicity (ALT, AST, LDH, ALP activity) of L-02 cells, without and with p38 inhibitor SB203580
Experimental: (§2) The normal hepatic cell (L02) cell lines were obtained from the National Infrastructure of Cell Line Resources (Chinese Academy of Medical Sciences, Beijing, China), and maintained in Dulbecco’s modified Eagle’s medium (DMEM, 10-013-CVR) supplemented with 10% fetal bovine serum (FBS, Hyclone), 1% penicillin and streptomycin (PS, 100 IU/ml penicillin, 100 μg/ml streptomycin, Mediatech, 30-002-CI). All cells were incubated in a humidified atmosphere at 37°C with 5% CO2.
To determine how potential liver injury-compounds affected biochemical indicators of L-02 cells, we investigated the activities of AST, ALT, LDH and ALP in cell migration capacity under the different representative compounds conditions (representative compounds group), the inhibitor conditions (inhibitor group), and the negative control. For these experiments, three replicates were made for each concentration of the different representative compounds with liver injury, and each group was established three holes and cultured in 6 times repeatedly. […] Subsequently, the supernatant extraction of L02 cells was collected and centrifuged to detect the activities of AST, ALT, LDH, and ALP by chromatometry method.
as §1, with “Seemingly, the ALT, AST, ALP, and LDH activities of each group decreased to varying degrees under the influence of inhibitor.” left out

[2] = MTT assay, cell viability of L-02 cells; settings: human, L-02 (L02) normal hepatic cells, L-02, MTT, 24 h, read-out: cells viabilityrate
Experimental: as §2
(§3) L-02 cells were trypsinized by 0.25% trypsin after reaching the confluence of 70–80% and plated in 96-well plates at the density of 1.6 × 10^3 […]. And L-02 cells were cultured for 24 hours in vitro before exposure to varying concentrations of different representative compounds with liver injury for further incubating in another 24 hours. Then, 20 μl of 0.25 mg/ml3-(4,5-dimethylthiazol-2-yl)-2,5-diphenyltetrazolium bromide (MTT)-tetrazolium salts (Sigma-Aldrich Corp., St. Louis, MO, USA) in PBS was added to each hole in 96-well plates. After 4 hours of incubation, the formazan crystals were dissolved by 150μl Dimethyl Sulphoxide (DMSO), and shocked to dissolve thoroughly, then the cell viability was measured by MTT method at 570 nm. All experiments were repeated in triplicate independently.

L-02 cells [3] = assay: MTT assay, cell viability of L-02 cells
Experimental: as §2, §3

[4] = S2 Table, L-02, 1000μmol/L+inhibitor (SB203580)
[5] = S2 Table, L-02, 1000μmol/L, no inhibitor
[6] = S2 Table, L-02, 2000μmol/L+inhibitor (SB203580)
[7] = S2 Table, L-02, 2000μmol/L, no inhibitor
[8] = Table 5, L-02 supernatant, 24 h, 1000μmol/L
[9] = Table 5, L-02 supernatant, 24 h, 2000μmol/L
[10] = S2 Table, L-02, 5μmol/L+inhibitor (SB203580)
[11] = S2 Table, L-02, 5μmol/L, no inhibitor
[12] = S2 Table, L-02, 10μmol/L+inhibitor (SB203580)
[13] = S2 Table, L-02, 10μmol/L, no inhibitor
[14] = Table 5, L-02 supernatant, 24 h, 5μmol/L
[15] = Table 5, L-02 supernatant, 24 h, 10μmol/L
[16] = Table 5, L-02 supernatant, 24 h, 15μmol/L

For `O=C(O)[C@H]1O[C@@H](Oc2cc3oc(-c4ccccc4)cc(=O)c3c(O)c2O)[C@H](O)[C@@H](O)[C@@H]1O` [Baicalin], the “ratios of p-p38α/p38α expression compared with the blank groups, in words” value (p38α; L-02, 10μmol/L diosgein, 2000μmol/L baicalin, 60μmol/L terandrine, 6μmol/L evodiamine) was “increased”, the p-p38α/p38α (p38α; S3 Table, L-02, 24 hours of incubation, 1000μmol/L) was 1.24±0.29 and the p-p38α/p38α (p38α; S3 Table, L-02, 24 hours of incubation, 2000μmol/L) was 2.06±0.66. The p-p38α/p38α (p38α; S4 Table, L-02, 24 hours, 1000μmol/L+inhibitor (SB203580)) was 0.76±0.15, the p-p38α/p38α (p38α; S4 Table, L-02, 24 hours, 1000μmol/L, no inhibitor) was 1.25±0.24 and the p-p38α/p38α (p38α; S4 Table, L-02, 24 hours, 2000μmol/L+inhibitor (SB203580)) was 0.26±0.03. For the same compound, the p-p38α/p38α (p38α; S4 Table, L-02, 24 hours, 2000μmol/L, no inhibitor) was 1.08±0.6, the ALP (L-02 cells [1]; [4]) was 0.70± 0.05 King's unit /100ml and the ALT (L-02 cells [1]; [4]) was 1.88± 0.20 U/L. It also gave an AST (L-02 cells [1]; [4]) of 4.12± 0.26 U/L, an LDH (L-02 cells [1]; [4]) of 778.83± 14.65 U/L and an ALP (L-02 cells [1]; [5]) of 0.86± 0.06 King's unit /100ml. The ALT (L-02 cells [1]; [5]) was 2.24± 0.30 U/L, the AST (L-02 cells [1]; [5]) was 4.45± 1.09 U/L and the LDH (L-02 cells [1]; [5]) was 699.84± 33.81 U/L. The ALP (L-02 cells [1]; [6]) was 0.85± 0.06 King's unit /100ml, the ALT (L-02 cells [1]; [6]) was 2.27± 0.32 U/L and the AST (L-02 cells [1]; [6]) was 4.38± 0.84 U/L. For the same compound, the LDH (L-02 cells [1]; [6]) was 981.04± 3.87 U/L, the ALP (L-02 cells [1]; [7]) was 0.92± 0.13 King's unit /100ml and the ALT (L-02 cells [1]; [7]) was 2.01± 0.20 U/L. For the same compound, the AST (L-02 cells [1]; [7]) was 4.48± 0.13 U/L, the LDH (L-02 cells [1]; [7]) was 840.44± 32.45 U/L and the ALP (L-02 cells [1]; [8]) was 2.03±0.44 King's unit /100ml. The ALT (L-02 cells [1]; [8]) was 4.45±1.09 U/L, the AST (L-02 cells [1]; [8]) was 690.76±33.24 U/L and the LDH (L-02 cells [1]; [8]) was 0.81±0.10 U/L. It also gave an ALP (L-02 cells [1]; [9]) of 1.94±0.21 King's unit /100ml, an ALT (L-02 cells [1]; [9]) of 4.48±0.13 U/L and an AST (L-02 cells [1]; [9]) of 824.64±39.22 U/L. It also gave an LDH (L-02 cells [1]; [9]) of 0.84±0.18 U/L, a viability at 24 h, 1000 μmol/L ([2]; 1000 μmol/L) of 154 ± 21.1% and a viability at 24 h, 2000 μmol/L ([2]; 2000 μmol/L) of 98.6 ± 16.5%. The “effect on L-02 (MTT), in words” value (L-02 cells [3]; dose of 2000μmol/L) was “trend of proliferative effects”.
Compound `O=c1c2ccccc2nc2n1CCc1c-2[nH]c2ccccc12` [Rutaecarpine] has an ALP (L-02 cells [1]; [10]) of 1.13± 0.12 King's unit /100ml, an ALT (L-02 cells [1]; [10]) of 5.01± 0.13 U/L and an AST (L-02 cells [1]; [10]) of 9.25± 1.09 U/L. It also gave an LDH (L-02 cells [1]; [10]) of 1193.32± 3.90 U/L, an ALP (L-02 cells [1]; [11]) of 1.63± 0.03 King's unit /100ml and an ALT (L-02 cells [1]; [11]) of 6.00± 0.43 U/L. It also gave an AST (L-02 cells [1]; [11]) of 10.33± 0.74 U/L, an LDH (L-02 cells [1]; [11]) of 1105.81± 85.95 U/L and an ALP (L-02 cells [1]; [12]) of 1.39± 0.28 King's unit /100ml. The ALT (L-02 cells [1]; [12]) was 5.63± 0.09 U/L, the AST (L-02 cells [1]; [12]) was 10.52± 0.97 U/L and the LDH (L-02 cells [1]; [12]) was 1217.18± 41.25 U/L. It also gave an ALP (L-02 cells [1]; [13]) of 1.07± 0.14 King's unit /100ml, an ALT (L-02 cells [1]; [13]) of 5.67± 0.12 U/L and an AST (L-02 cells [1]; [13]) of 9.81± 0.74 U/L. For the same compound, the LDH (L-02 cells [1]; [13]) was 1155.13± 35.72 U/L, the ALP (L-02 cells [1]; [14]) was 5.77±0.54 King's unit /100ml and the ALT (L-02 cells [1]; [14]) was 9.90±0.99 U/L. It also gave an AST (L-02 cells [1]; [14]) of 1075.18±91.40 U/L, an LDH (L-02 cells [1]; [14]) of 1.62±0.04 U/L and an ALP (L-02 cells [1]; [15]) of 5.67±0.12 King's unit /100ml. For the same compound, the ALT (L-02 cells [1]; [15]) was 8.81±1.85 U/L, the AST (L-02 cells [1]; [15]) was 1127.68±56.72 U/L and the LDH (L-02 cells [1]; [15]) was 1.54±0.36 U/L. The ALP (L-02 cells [1]; [16]) was 5.54±0.57 King's unit /100ml, the ALT (L-02 cells [1]; [16]) was 9.33±1.85 U/L and the AST (L-02 cells [1]; [16]) was 1000.00±61.27 U/L. The LDH (L-02 cells [1]; [16]) was 1.71±0.16 U/L, the viability at 24 h, 5 μmol/L ([2]; 5 μmol/L) was 92.7 ± 3.74% and the viability at 24 h, 10 μmol/L ([2]; 10 μmol/L) was 81.3 ± 6.29%. The viability at 24 h, 15 μmol/L ([2]; 15 μmol/L) was 80.5 ± 3.9% and the “cell viability of L-02 (MTT), in words” value (L-02 cells [3]; dose of 5μmol/L) was “good potency inhibitor against the cell viability”.
